These results are taken from US10975056B2 (GlaxoSmithKline Intellectual Property Development Limited, priority 2016, dated 2021).

One test concerns the target DNMT1 (Homo sapiens, UniProt P26358). Briefly: DNMT1 biochemical activity, breaklight assay and/or SPA assay. As to conditions: for DNMT1 BioChemical (pIC50 category) / IC50: binned activity in either the breaklight or the SPA assay; for IC50: read-out: DNMT1 BioChemical (pIC50 category) (converted). On the procedure: DNMT1 breaklight in vitro assays were conducted in a total volume of 50 μl in a standard 384 well format, using black non-binding surface microplates (Corning 3575). […] Negative control wells used 5 μl of DNMT1 and 5 μl of oligonucleotide but 0 μM SAM. All reagents were made up in 1× assay buffer (20 mM Tris pH 6.8, 25 mM NaCl, 0.5 mM MgCl2, 0.01% Triton X100 and 1 mM DTT). The reaction was incubated at 26° C. for 45 min and then stopped with the addition of 40 μl detection reagent. Detection reagent, made up in 1× Gla assay buffer (20 mM Tris pH 8.0, 80 mM NaCl, 0.75 mM MgCl2, 0.01% Triton X100 and 1 mM DTT) has a final concentration of 100 μM SAH (Sigma #A9384) and 0.0008 units/μl Gla1 restriction endonuclease (Sibenzyme #E494). Following addition of the detection reagent the plate was incubated in the dark at room temperature for 5 hr. Fluorescence intensity was then measured on the PHERAstar FS (BMG Labtech) at Ex 485 nm and Em 520 nm, with a gain of 400 and an integration time of 100 ms.
Biochemical activity of DNMT1 analyzed using SPA technology. Plates (Griener 784075) were pre-stamped with 100 nL/well of compound (11-point, 3-fold serial dilution). […] Low control wells contained 5 μL of buffer instead of enzyme. Following a 40 minute incubation, the reaction was quenched upon the addition of 10 μL of stop mixture containing 1 mM SAM (Sigma A7007) and 2 mg/mL PEI beads (Perkin Elmer RPNQ0098). Plates were sealed, centrifuged for 1 min and then read on a Viewlux (Perkin Elmer) using the 613 nm emission filter/300 s read time following a 30 minute dark adapt. Assay conditions prior to quench consisted of 40 nM DNMT1 (601-1600, produced internally), 100 nM 3H-SAM (American Radiolabeled Chemicals ART 0288), 900 nM SAM (New England BioLabs B9003S) and 200 nM hemi methylated DNA oligonucleotide (synthesized at Integrated DNA Technologies, 5′-[…]-3′) in 50 mM HEPES (pH 8.0), 2 mM MgCl2, 1 mM DTT, 0.01% NP-40 and 0.01% BSA.
Comments • 1. […] Where a field is empty, the compound was not tested in that assay.

The test system of test [1] is erythroid progenitor cells (EPCs). Briefly: Fetal hemoglobin (HbF) ELISA in day 7 erythroid progenitor cells. It is filed as cell-based, human. To be noted: Homo sapiens, Erythroid progenitor cell, HbF ELISA, day 7 EPCs, 5 days; read-out: EPC ELISA (pEC50 category) (converted). The procedure:
Day 7 EPCs were cultured in duplicate plates with serially diluted Compound A for 5 days at 37° C. Wells were then analyzed for either induction of fetal hemoglobin (HbF,HbF ELISA) or cell growth (Cell Titer-Glo). In both cases, signal was normalized to vehicle-control treated cells.
Culture, Expansion, and Characterization of Day 7 Erythroid Progenitor Cells (EPC)s
All donors provided written informed consent for use of their samples, and the collection and use of the samples received institutional review board approval. All cryopreserved human bone marrow CD34+ cells used here were obtained from AlICells (Emeryville, Calif.) and were generally from different donors. The CD34+ cells were cultured to generate EPCs at day 7. Briefly, 1 million cells were cultured in 5% CO2, 5% O2 at 37° C. in H3000 Stemspan media (StemCell Technologies Vancouver, BC, Canada) supplemented with 2 mM L-glutamine, 40 μg/mL human low-density lipoproteins (StemCell Technologies), 10 ng/mL recombinant human (rh) interleukin IL-3 (R&D Systems, Minneapolis, Minn.), 100 ng/mL rh stem cell factor (R&D Systems), and 0.5 U/mL rh erythropoietin (Invitrogen, Grand Island, N.Y.). Cells were split and refed on day 4 with complete culture media described above and harvested on day 7 for evaluation of erythroid marker expression and assessment of γ-globin induction. Day 7 EPCs were then frozen in liquid nitrogen at 5 to 10 million cells/mL in 95% fetal bovine serum (FBS; Invitrogen) with 5% DMSO for subsequent use.
At the time of compound treatment, frozen day 7 EPCs prepared as described above were thawed, washed once and re-suspended in complete culture media as described above with the exception of an increase of rhEPO to 3 U/mL. Cells were counted and diluted to […] for plating into assay plates. Cells were then dispensed, at 30 μL per well with Multidrop™ Combi Reagent Dispenser (Thermo Scientific), into 384-well cell culture plates into which test compounds were pre-dispensed at 100 nL/well. Black Clear Bottom (Greiner Bio-One; 781090) and White (Greiner Bio-One; 781080) plates were used for ELISA and Cell Titer-Glo assays, respectively. The final cell density in the assays is 1,000 cells per well, with final compound concentrations between 33 nM (highest) and […] (lowest) for the 22-points serial dilution.
Fetal Hemoglobin (HbF) ELISA
Coating anti-HbF Ab (Bethyl Lab; cat. A80-136A) was diluted by 100-fold in the coating buffer (0.05 M carbonate-bicarbonate, pH 9.6), and then 20 μL/well was added to a 384-well MaxiSorp ELISA plate (Thermo Fisher; cat. 464718). After 1 hour incubation at room temperature, the plates were washed twice with ELISA washing buffer (50 mM Tris, 0.05% Tween 20, pH 8.0) with an EL406 plate washer (BioTek, Winooski, Vt.). Then, 40 μL/well of blocking buffer consisting of 50 mM Tris and 1% BSA (pH 8.0) was added to the plate and stored at 4° C. with cover sheet overnight, or until time of the assay. The coated ELISA plates were stable for up to 30 days at 4° C. On the day of assay, the plates were washed twice with ELISA washing buffer prior to addition of cell lysate.
After 5 days at 37° C. with 5% CO2 cell culture plates for ELISA assay were put into −80° C. freezer for a minimum of 2 hours. After thawing at room temperature, 30 μL of cell lysis buffer (Invitrogen; cat. FNN0011, supplemented with 1× protease inhibitor) was added to each well and the resulting cell lysate was mixed eight times with a Cybi-Well (Jena, Germany) pipettor. Following the mixing procedure, 20 μL/well of lysate was transferred to the coated ELISA plates described above followed by a 1 hour incubation at room temperature. The ELISA assay plates were washed three times with ELISA wash buffer. 20 μL per well of 1:75,000 to 100,000 diluted horseradish peroxidase (HRP) conjugate detection antiHbF Ab (Bethyl Labs; cat. A80-136P, diluted in 50 mM Tris [pH 8.0], 1% BSA, 0.05% Tween-20) was then added. […]
A general note: ELISA stands for enzyme-linked immunosorbent assay.

The structures appear in SMILES notation. Counter-ions that a name gives are not always drawn.

DNMT1, sequence (P26358 whole entry, looked up): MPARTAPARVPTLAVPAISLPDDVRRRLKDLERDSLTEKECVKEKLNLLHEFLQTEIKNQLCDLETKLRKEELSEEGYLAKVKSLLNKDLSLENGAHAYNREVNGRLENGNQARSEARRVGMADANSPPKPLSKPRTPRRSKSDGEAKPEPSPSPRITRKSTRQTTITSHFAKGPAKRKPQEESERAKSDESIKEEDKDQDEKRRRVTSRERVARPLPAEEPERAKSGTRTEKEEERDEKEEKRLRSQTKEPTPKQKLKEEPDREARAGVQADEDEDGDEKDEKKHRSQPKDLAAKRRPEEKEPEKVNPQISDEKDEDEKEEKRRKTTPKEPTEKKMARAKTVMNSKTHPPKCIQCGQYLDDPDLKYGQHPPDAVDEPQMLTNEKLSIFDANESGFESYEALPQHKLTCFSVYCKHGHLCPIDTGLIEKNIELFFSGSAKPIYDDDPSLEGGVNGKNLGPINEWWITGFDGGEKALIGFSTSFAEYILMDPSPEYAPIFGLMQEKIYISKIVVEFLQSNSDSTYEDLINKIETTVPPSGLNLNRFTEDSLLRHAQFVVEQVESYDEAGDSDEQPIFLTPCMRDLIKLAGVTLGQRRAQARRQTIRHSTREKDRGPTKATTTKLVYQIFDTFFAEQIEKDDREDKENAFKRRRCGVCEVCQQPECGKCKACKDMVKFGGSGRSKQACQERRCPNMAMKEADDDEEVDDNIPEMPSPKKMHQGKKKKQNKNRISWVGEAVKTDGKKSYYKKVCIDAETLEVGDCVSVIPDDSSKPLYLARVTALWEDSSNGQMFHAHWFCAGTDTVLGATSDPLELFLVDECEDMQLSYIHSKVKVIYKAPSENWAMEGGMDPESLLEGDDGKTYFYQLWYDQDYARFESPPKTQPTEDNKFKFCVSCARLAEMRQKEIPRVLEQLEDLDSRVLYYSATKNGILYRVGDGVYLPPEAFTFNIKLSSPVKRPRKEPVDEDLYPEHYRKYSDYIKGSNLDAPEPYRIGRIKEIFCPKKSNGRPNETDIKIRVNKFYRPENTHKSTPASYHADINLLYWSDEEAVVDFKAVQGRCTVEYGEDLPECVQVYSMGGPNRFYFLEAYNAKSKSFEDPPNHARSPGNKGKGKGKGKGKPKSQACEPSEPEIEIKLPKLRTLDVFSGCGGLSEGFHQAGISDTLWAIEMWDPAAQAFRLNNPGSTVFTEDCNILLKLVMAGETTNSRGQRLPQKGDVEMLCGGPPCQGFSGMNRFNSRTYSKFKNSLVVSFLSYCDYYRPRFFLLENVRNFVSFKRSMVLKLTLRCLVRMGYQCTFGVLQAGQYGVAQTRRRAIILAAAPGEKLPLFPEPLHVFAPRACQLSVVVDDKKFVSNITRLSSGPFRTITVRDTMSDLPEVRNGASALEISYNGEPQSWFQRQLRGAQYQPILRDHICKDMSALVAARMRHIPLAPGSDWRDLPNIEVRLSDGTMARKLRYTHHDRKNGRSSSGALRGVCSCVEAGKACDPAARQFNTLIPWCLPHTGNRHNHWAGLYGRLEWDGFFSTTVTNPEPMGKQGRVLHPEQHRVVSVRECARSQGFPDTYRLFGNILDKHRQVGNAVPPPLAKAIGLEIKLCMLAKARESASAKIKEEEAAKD

As to `CCc1c(C#N)c(SCc2ccc(CNC(=O)CN)cc2)nc(N2CCCN(C)CC2)c1C#N` [Example 80, 2-Amino-N-(4-(((3,5-dicyano-4-ethyl-6-(4-methyl-1,4-diazepan-1-yl)pyridin-2-yl)thio)methyl)benzyl)acetamide], the “DNMT1 BioChemical (pIC50 category)” value on DNMT1 is on record as “D (Category D: ≥6.5)”. Besides, the “average pIC50 against DNMT1” value on DNMT1 (breaklight assay and/or SPA assay, repeated experimental runs) was more than 6.5. Also, the EC50 in test [1] is 0.316 to 1 µM.
As for `CCc1c(C#N)c(SC(C(N)=O)c2ccccc2)nc(N(C)CCNCCF)c1C#N` (stereo not shown) [Example 495, 2-((3,5-dicyano-4-ethyl-6-((2-((2-fluoroethyl)amino)ethyl)(methyl)amino)pyridin-2-yl)thio)-2-phenylacetamide], the “DNMT1 BioChemical (pIC50 category)” value on DNMT1 is listed as “D (Category D: ≥6.5)”. Moreover, the EC50 in test [1] was 1 to 31.6 µM.
Turning to `CCc1c(C#N)c(SC(C(N)=O)c2ccccc2)nc(N2CCC(NCC(=O)O)CC2)c1C#N` (stereo not shown) [Example 497, 2-((1-(6-((2-amino-2-oxo-1-phenylethyl)thio)-3,5-dicyano-4-ethylpyridin-2-yl)piperidin-4-yl)amino)acetic acid], the “DNMT1 BioChemical (pIC50 category)” value at DNMT1 is “D (Category D: ≥6.5)”. In test [1], the EC50 is 1 to 31.6 µM.
Consider `CCc1c(C#N)c(SC(C(N)=O)c2ccccc2)nc(N(C)CCO)c1C#N` (stereo not shown) [Example 147, 2-(3,5-Dicyano-4-ethyl-6-((2-hydroxyethyl)(methyl)amino)pyridin-2-ylthio)-2-phenylacetamide], for which the IC50 at DNMT1 is 0.316 to 1 µM. Further, in test [1], the EC50 was 0.316 to 1 µM.
Take `CCc1c(C#N)c(SC(C(N)=O)c2ccccc2)nc(N2CCC(N)C(F)(F)C2)c1C#N` (stereo not shown) [Example 382, 2-((6-(4-Amino-3,3-difluoropiperidin-1-yl)-3,5-dicyano-4-ethylpyridin-2-yl)thio)-2-phenylacetamide]: the “DNMT1 BioChemical (pIC50 category)” value at DNMT1 is given as “D (Category D: ≥6.5)”. Besides, the EC50 in test [1] is less than 0.316 µM.
On the same counts, the results for `CCc1c(C#N)c(SC(C(N)=O)c2ccccc2)nc(N2CCC(NC(=O)[C@H](N)CO)CC2)c1C#N` (stereo partly drawn) [Example 398, (2R)-2-Amino-N-(1-(6-((2-amino-2-oxo-1-phenylethyl)thio)-3,5-dicyano-4-ethylpyridin-2-yl)piperidin-4-yl)-3-hydroxypropanamide] are “D (Category D: ≥6.5)” and 1 to 31.6 µM.
Take `CCc1c(C#N)c(SCc2ccc(CNC(=O)CCN)cc2)nc(N2CCCN(C)CC2)c1C#N` [Example 96, 3-Amino-N-(4-(((3,5-dicyano-4-ethyl-6-(4-methyl-1,4-diazepan-1-yl)pyridin-2-yl)thio)methyl)benzyl)propanamide]: the “DNMT1 BioChemical (pIC50 category)” value at DNMT1 is “D (Category D: ≥6.5)”. Also, the EC50 in test [1] was more than 31.6 µM.
Regarding `CCc1c(C#N)c(S[C@H](C(N)=O)c2ccccc2)nc(N2CC[C@H](O)C2)c1C#N` [Example 320, (S)-2-((3,5-Dicyano-4-ethyl-6-((S)-3-hydroxypyrrolidin-1-yl)pyridin-2-yl)thio)-2-phenylacetamide], the IC50 at DNMT1 was 1 to 31.6 µM. Further, the EC50 in test [1] was 0.316 to 1 µM.
As for `CCc1c(C#N)c(SC(C(N)=O)c2ccccc2)nc(N(C)CC(=O)N2CC[C@@H](CO)C2)c1C#N` (stereo partly drawn) [Example 652, 2-((3,5-dicyano-4-ethyl-6-((2-((R)-3-(hydroxymethyl)pyrrolidin-1-yl)-2-oxoethyl)(methyl)amino)pyridin-2-yl)thio)-2-phenylacetamide], in test [1], the EC50 is less than 0.316 µM.
On to `CCc1c(C#N)c(SC(C(N)=O)c2ccccc2)nc(N2CCC(NCC3(C)CCC3)CC2)c1C#N` (stereo not shown) [Example 466, 2-((3,5-dicyano-4-ethyl-6-(4-(((1-methylcyclobutyl)methyl)amino)piperidin-1-yl)pyridin-2-yl)thio)-2-phenylacetamide], for which the EC50 in test [1] was less than 0.316 µM.
Take `CCc1c(C#N)c(SC(C(N)=O)c2ccccc2)nc(N2CCC(N)CC2)c1C#N` (stereo not shown) [Example 143, 2-((6-(4-Aminopiperidin-1-yl)-3,5-dicyano-4-ethylpyridin-2-yl)thio)-2-phenylacetamide]: the EC50 in test [1] was less than 0.316 µM.
Same read-out and setting: the value for `[2H]C([2H])([2H])N(c1nc(SC(C(N)=O)c2ccccc2)c(C#N)c(CC)c1C#N)C([2H])([2H])[2H]` (stereo not shown) [Example 404, 2-((3,5-Dicyano-6-(dimethylamino-d6)-4-ethylpyridin-2-yl)thio)-2-phenylacetamide] was 0.316 to 1 µM; that for `CCc1c(C#N)c(S[C@H](C(N)=O)c2ccccc2)nc(N2CCC(N)CC2)c1C#N` [Example 605, (S)-2-((6-(4-aminopiperidin-1-yl)-3,5-dicyano-4-ethylpyridin-2-yl)thio)-2-phenylacetamide, Hydrochloride] was less than 0.316 µM; that for `[2H][C@](Sc1nc(N(C)C)c(C#N)c(CC)c1C#N)(C(N)=O)c1ccccc1` [Example 308, (R)-2-((3,5-Dicyano-6-(dimethylamino)-4-ethylpyridin-2-yl)thio)-2-phenylacetamide-2-d] was 0.316 to 1 µM.
Still for that read-out and setting: the value for `[2H]C(Sc1nc(N(C)C)c(C#N)c(CC)c1C#N)(C(N)=O)c1ccccc1` (stereo not shown) [Example 305, 2-((3,5-Dicyano-6-(dimethylamino)-4-ethylpyridin-2-yl)thio)-2-phenylacetamide-2-d] was 0.316 to 1 µM.
Turning to `CCc1c(C#N)c(S[C@@H](C(N)=O)c2ccccc2)nc(N2CCC(N)CC2)c1C#N` [Example 412, (R)-2-((6-(4-aminopiperidin-1-yl)-3,5-dicyano-4-ethylpyridin-2-yl)thio)-2-phenylacetamide, Hydrochloride], the EC50 in test [1] is less than 0.316 µM.
